Results as given in patent publication US12606508B2, “Cannabis extracts and uses thereof” (priority 2020, dated 2026).
Entries after “also recorded” stand apart in the source; their conditions may differ. Read-outs that look alike come from different tables or passages of the source.

Tests used:
C57BL6/J mice [1] = test: Tetrad test, overall cannabimimetic profile; type: in vivo; conditions: i.p.
Procedure: Tetrad test. Male C57BL6/J mice 6-8 weeks (Envigo, Italy) were housed under controlled conditions (12 h light/12 h dark cycle; temperature 20-22 C; humidity 55-60%) with chow and tap water available ad libitum. All surgeries and experimental procedures were approved by the Animal Ethics Committee of University of Campania “L. Vanvitelli,” Naples. Animal care was in compliance with Italian (D.L. 116/92) and European Commission (O.J. of E.C. L358/1 […]) regulations on the protection of laboratory animals. All efforts were made to minimize animal suffering and to reduce the number of animals used. All the experiments were performed in a randomized manner by the same operator blind to pharmacological treatments.
(§1) Mice (n=4) were treated with Δ^9-THCB (10 and 20 mg/kg) or vehicle (0.9% saline and 0.05% DMSO) by intraperitoneal (i.p.) administration. Mice were evaluated for hypomotility (open field test), hypothermia (body temperature test), antinociceptive (hot plate test), and cataleptic effects (bar test), using the tetrad tests as described in the protocol by Metna-Laurent M. et al.^62 Statistical analysis was performed using the Kruskall-Wallis test and Dunn's post hoc tests.
(§2) Male C57BL6/J mice (7 weeks old; n=5) were treated with Δ^9-THCP (10, 5 and 2.5 mg/kg) or vehicle (1:1:18; ethanol:Kolliphor EL:0.9% saline) by i.p. administration. Mice were evaluated for hypomotility (open field test), hypothermia (body temperature), antinociceptive (hot plate test), and cataleptic (bar test) effects, using the tetrad tests^58. Statistical analysis was performed using the Kruskall-Wallis test and Dunn's post hoc tests.

human CB2 receptor = molecular target: T1, human CB2 receptor (Homo sapiens, UniProt P34972); test: Radioligand binding assay at human CB2 receptor ([^3H]WIN 55212-2 displacement, Eurofins Discovery)
T1 construct: Eurofins Discovery (contract assay)
Procedure: 2.2.4 Binding affinity at human CB1 and CB2 receptors. The binding affinity of (−)-trans-Δ^9-THCB against purified human CB1 and CB2 receptors was determined in a radioligand binding assay. The capability of the ligand to displace radiolabeled [^3H]
Binding at CB1 and CB2 Receptors. The binding affinity of (−)-trans-Δ^9-THCB against human CB1 and CB2 receptors was determined in a radioligand binding assay performed by Eurofins Discovery. The compound was tested at ten concentrations, ranging from 1 nM to 30 μM, in duplicate. The compound binding was calculated as a % inhibition of the binding of a radioactively labeled ligand specific for each target. […] The results were expressed as a percent inhibition of control specific binding obtained in the presence of the tested compounds using eq. 1.
The IC50 values (concentration causing a half-maximal inhibition of control specific binding) were determined by non-linear regression analysis of the competition curves generated with mean replicate values (eq. 2)^55.
Where Y is the specific binding, A is the left asymptote of the curve, D is the right asymptote f the curve, C is the compound concentration, C50 is the IC50 value and nH is the slope factor. […] The inhibition constants (Ki) were calculated using the Cheng Prusoff equation: […]
3.1.4 Binding affinity at human CB1 and CB2 receptors. […] The binding affinity of (−)-trans-Δ^9-THCP against human CB1 and CB2 receptors was assessed by Eurofins Discovery using a radioligand binding assay. […] Eq. 1 was employed to calculate the percent inhibition of control specific binding obtained in the presence of the tested compounds. […]
Where Y is the specific binding, A is the left asymptote of the curve, D is the right asymptote f the curve, C is the compound concentration, C50 is the IC50 value and nH is the slope factor. […] The inhibition constants (Ki) were determined using the Cheng Prusoff equation (eq. 3): […]

C57BL6/J mice [2] = test: Tetrad: open field test (spontaneous/motor activity); type: in vivo; conditions: mean±SEM
Procedure: as §1
Open field test. The open field test (OFT) was performed 30 min after drug or vehicle injection. The apparatus was cleaned before each test using a 70% EtOH solution. After randomly assigning naïve mice to a treatment group, the operator started to record animal behaviors, which were stored and analyzed using an automated behavioral tracking system (Smart v3.0, Panlab Harvard Apparatus). Mice were placed in an OFT arena (1×w×h: 44 cm×44 cm×30 cm), and ambulatory activity (total distance travelled in cm), was recorded for 15 min and analyzed.
as §2
Openfield. The open field test was used for the evaluation of motor activity. Behavioral assays were performed 30 min after drug (or vehicle) injection. The apparatus was cleaned before each behavioral session by solution of 70% ethanol. Naïve mice were randomly assigned to a treatment group. Behaviors were recorded, stored, and analyzed using an automated behavioral tracking system (Smart v3.0, Panlab Harvard Apparatus). Mice were placed in an OFT arena (1×w×h: 25 cm×25 cm), and ambulatory activity (total distance travelled in centimeter), were recorded for 15 minutes and analyzed.

C57BL6/J mice [3] = test: Tetrad: hot plate test (analgesia); type: in vivo; conditions: 52° C., 85 min after administration, mean±SEM
Procedure: as §1
Hotplate test. Each mouse was placed on a hot plate (Ugo Basile), which was kept at a constant temperature of 52° C. The nociceptive response (NR) was recorded as characteristic actions of the mouse like licking of the hind paws, as well as jumping. The latency to the NR was measured in sec 85 minutes after drug or vehicle administration. A 30 or 60 sec cut-off time was used in order to prevent tissue damage.
as §2
Hot plate. Changes in nociception were evaluated by the hot plate test. On the day of experiment each mouse was placed on a hot plate (Ugo Basiele) at a constant temperature of 52° C. Licking of the hind paws, as well as jumping, were considered as a nociceptive response (NR) and the latency was measured in seconds 85 minutes after drug or vehicle administration. The latency to the NR was recorded and a 30 or 60 s cut-off time was used in order to prevent tissue damage.

C57BL6/J mice [4] = test: Tetrad: body (rectal) temperature test; type: in vivo; conditions: mean±SEM; for change in rectal temperature: 50 min after administration vs basal, n=4, vehicle 0.53; for change in body temperature: difference to basal temperature, n=5, vehicle 0.40
Procedure: as §1
Body temperature test. A probe was gently inserted for 1 cm into the mouse rectum after the animal had been immobilized. The probe was washed and cleaned with 70% ethanol and the dried with a paper towel. The body temperature was measured after stabilization of the value in ° C. in basal conditions and at 50 minutes after drug or vehicle administration.
as §2
Body temperature. The mouse was immobilized and the probe gently inserted for 1 cm into the rectum until stabilization of temperature. Between each mouse the probe was cleaned with 70% ethanol and dried with paper towel.

T1 sequence (P34972 whole entry): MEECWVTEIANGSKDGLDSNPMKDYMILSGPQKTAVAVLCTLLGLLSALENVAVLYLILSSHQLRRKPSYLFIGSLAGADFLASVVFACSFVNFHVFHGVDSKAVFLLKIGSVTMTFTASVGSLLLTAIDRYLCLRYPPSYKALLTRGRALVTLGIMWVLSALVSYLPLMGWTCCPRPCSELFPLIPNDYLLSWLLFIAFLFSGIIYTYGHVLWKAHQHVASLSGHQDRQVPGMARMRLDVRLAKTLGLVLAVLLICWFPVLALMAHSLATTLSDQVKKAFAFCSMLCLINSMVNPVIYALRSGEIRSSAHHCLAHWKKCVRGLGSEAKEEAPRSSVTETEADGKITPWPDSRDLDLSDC

SMILES | cannabimimetic profile in the tetrad test (in words) (C57BL6/J mice [1]) | Ki (human CB2 receptor; Cheng Prusoff from IC50, [^3H]WIN 55212-2 radioligand, read-out: hCB2 Ki) [nM] | IC50 (human CB2 receptor; displacement of [^3H]WIN 55212-2, ten concentrations 1 nM to 30 μM, duplicate, SD within ±10%, read-out: hCB2 IC50) [nM] | open field: distance travelled (C57BL6/J mice [2]; Δ^9-THCB 10 mg/kg i.p., 30 min after injection, 15 min, n=4, vehicle 3283) [cm] | open field: distance travelled (C57BL6/J mice [2]; Δ^9-THCB 20 mg/kg i.p., 30 min after injection, 15 min, n=4, vehicle 3283) [cm] | hot plate: latency to nociceptive response (C57BL6/J mice [3]; Δ^9-THCB 10 mg/kg i.p., n=4, vehicle 10.15) [s] | hot plate: latency to nociceptive response (C57BL6/J mice [3]; Δ^9-THCB 20 mg/kg i.p., n=4, vehicle 10.15) [s] | change in rectal temperature (C57BL6/J mice [4]; Δ^9-THCB 10 mg/kg i.p.) [°C] | change in rectal temperature (C57BL6/J mice [4]; Δ^9-THCB 20 mg/kg i.p.) [°C] | dose at which active in three of the four tetrad tests (C57BL6/J mice [1]) [mg/kg] | Ki (human CB2 receptor) [nM] | open field: distance travelled (C57BL6/J mice [2]; Δ^9-THCP 2.5 mg/kg i.p., n=5, vehicle 6888) [cm] | open field: distance travelled (C57BL6/J mice [2]; Δ^9-THCP 5 mg/kg i.p., n=5, vehicle 6888) [cm] | open field: distance travelled (C57BL6/J mice [2]; Δ^9-THCP 10 mg/kg i.p., n=5, vehicle 6888) [cm] | hot plate: latency to nociceptive response (C57BL6/J mice [3]; Δ^9-THCP 2.5 mg/kg i.p., not statistically significant, n=5, vehicle 19.20) [s] | hot plate: latency to nociceptive response (C57BL6/J mice [3]; Δ^9-THCP 5 mg/kg i.p., n=5, vehicle 19.20) [s] | hot plate: latency to nociceptive response (C57BL6/J mice [3]; Δ^9-THCP 10 mg/kg i.p., n=5, vehicle 19.20) [s] | change in body temperature (C57BL6/J mice [4]; Δ^9-THCP 2.5 mg/kg i.p.) [°C] | change in body temperature (C57BL6/J mice [4]; Δ^9-THCP 5 mg/kg i.p.) [°C] | change in body temperature (C57BL6/J mice [4]; Δ^9-THCP 10 mg/kg i.p.) [°C]
CCCCc1cc(O)c2c(c1)OC(C)(C)[C@@H]1CCC(C)=C[C@@H]21 [Δ^9-THCB, (6aR,10aR)-3-butyl-6,6,9-trimethyl-6a,7,8,10a-tetrahydro-6H-benzo[c]chromen-1-ol] | partial agonistic activity; also recorded: partial agonist for CB1 receptor | 51 | 79 | 3220 | 3591 | 7.94 | 17.50 | −0.28 | 0.40 | – | – | – | – | – | – | – | – | – | – | –
CCCCCCCc1cc(O)c2c(c1)OC(C)(C)[C@@H]1CCC(C)=C[C@@H]21 [Δ^9-THCP, (6aR,10aR)-3-heptyl-6,6,9-trimethyl-6a,7,8,10a-tetrahydro-6H-benzo[c]chromen-1-ol] | THC-like cannabimimetic activity; also recorded: miming the properties of full CB1 receptor agonists | – | – | – | – | – | – | – | – | 5 | 6.2 | 4072 | 127.5 | 166.8 | 40.22 | 54.38 | 57.0 | −4.12 | −5.28 | −7.10
